In US20200317642A1, “AMINE-SUBSTITUTED HETEROCYCLIC COMPOUNDS AS EHMT2 INHIBITORS AND DERIVATIVES THEREOF” (Epizyme, Inc., priority 2017, published 2020):
Read-outs that look alike come from different tables or passages of the source.

Experiments:
[1] = molecular target: T1, EHMT1 (Homo sapiens, UniProt Q9H9B1); experiment: EHMT1 PEP enzyme assay; type: biochemical
T1 sequence (Q9H9B1 1-1298): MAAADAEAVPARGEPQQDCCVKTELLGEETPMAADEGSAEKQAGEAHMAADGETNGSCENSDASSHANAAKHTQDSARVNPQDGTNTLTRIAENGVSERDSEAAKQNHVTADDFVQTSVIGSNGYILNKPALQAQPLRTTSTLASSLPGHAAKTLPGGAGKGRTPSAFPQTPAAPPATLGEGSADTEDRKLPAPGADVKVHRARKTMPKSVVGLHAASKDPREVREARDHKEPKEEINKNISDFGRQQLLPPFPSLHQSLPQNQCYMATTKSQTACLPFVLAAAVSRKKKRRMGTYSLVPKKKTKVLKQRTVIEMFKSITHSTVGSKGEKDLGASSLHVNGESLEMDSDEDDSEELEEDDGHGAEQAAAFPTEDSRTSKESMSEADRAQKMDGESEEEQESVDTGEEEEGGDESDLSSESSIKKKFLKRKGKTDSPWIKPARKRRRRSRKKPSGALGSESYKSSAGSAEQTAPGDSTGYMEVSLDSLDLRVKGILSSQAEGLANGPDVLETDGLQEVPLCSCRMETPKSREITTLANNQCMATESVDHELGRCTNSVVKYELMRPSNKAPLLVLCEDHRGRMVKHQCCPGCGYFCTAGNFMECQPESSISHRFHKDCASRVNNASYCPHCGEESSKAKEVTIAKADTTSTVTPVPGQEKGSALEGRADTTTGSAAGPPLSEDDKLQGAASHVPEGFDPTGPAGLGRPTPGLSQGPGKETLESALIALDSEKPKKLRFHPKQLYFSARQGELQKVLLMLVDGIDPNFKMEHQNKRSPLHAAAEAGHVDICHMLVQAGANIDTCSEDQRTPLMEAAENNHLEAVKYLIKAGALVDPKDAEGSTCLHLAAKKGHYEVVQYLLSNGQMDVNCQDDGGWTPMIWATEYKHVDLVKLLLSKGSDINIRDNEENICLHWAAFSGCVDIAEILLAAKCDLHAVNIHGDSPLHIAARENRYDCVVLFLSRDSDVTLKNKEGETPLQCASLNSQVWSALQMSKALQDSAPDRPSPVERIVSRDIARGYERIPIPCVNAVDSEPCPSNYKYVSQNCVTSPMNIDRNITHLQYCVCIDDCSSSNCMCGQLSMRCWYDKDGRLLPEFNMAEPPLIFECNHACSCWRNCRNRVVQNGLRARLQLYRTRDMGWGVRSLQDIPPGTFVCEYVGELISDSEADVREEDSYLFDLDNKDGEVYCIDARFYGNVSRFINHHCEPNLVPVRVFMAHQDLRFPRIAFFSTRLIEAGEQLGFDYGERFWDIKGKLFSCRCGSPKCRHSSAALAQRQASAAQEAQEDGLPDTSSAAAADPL

[2] = system: H3K9me2 in MDA-MB-231 cells; experiment: MDA-MB-231 H3K9me2 in-cell western assay (EHMT2 ICW); type: cell-based; settings: Homo sapiens
Source text: MDA-MB-231 cell line was purchased from ATCC (Manassas, Va., USA). RPMI/Glutamax medium, Penicillin-Streptomycin, Heat Inactivated Fetal Bovine Serum, and D-PBS were purchased from Life Technologies (Grand Island, N.Y., USA). Odyssey blocking buffer, 800 CW goat anti-mouse IgG (H+L) antibody, and Licor Odyssey Infrared Scanner were purchased from Licor Biosciences, Lincoln, Nebr., USA. H3K9me2 mouse monoclonal antibody (Cat #1220) was purchased from Abcam (Cambridge, Mass., USA). 16% Paraformaldehyde was purchased from Electron Microscopy Sciences, Hatfield, Pa., USA). MDA-MB-231 cells were maintained in complete growth medium (RPMI supplemented with 10% v/v heat inactivated fetal bovine serum) and cultured at 37° C. under 5% C02. UNC0638 was purchased from Sigma-Aldrich (St. Louis, Mo., USA).
General Procedure for MDA-MB-231 HEK9me2 in-Cell Western Assay.
Compound (100 nL) was added directly to 384-well cell plate. MDA-MB-231 cells (ATCC) were seeded in assay medium (RPMI/Glutamax supplemented with 10% v/v heat inactivated fetal bovine serum and 1% Penicillin/Streptomycin, Life Technologies) at a concentration of 3,000 cells per well to a Poly-D-Lysine coated 384-well cell culture plate with 50 μL per well. Plates were incubated at 37° C., 5% CO2 for 48 hours (BD Biosciences 356697). […] After the incubation, 50 μL per well of 8% paraformaldehyde (Electron Microscopy Sciences) in PBS was added to the plates and incubated at room temperature for 20 minutes. Plates were transferred to a Biotek 406 plate washer and washed 2 times with 100 μL per well of wash buffer (1×PBS containing 0.3% Triton X-100 (v/v)). Next, 60 μL per well of Odyssey blocking buffer (Licor Biosciences) was added to each plate and incubated for 1 hour at room temperature. Blocking buffer was removed and 20 μL of monoclonal primary antibody α-H3K9me2 (Abcam) diluted 1:800 in Odyssey buffer with 0.1% Tween 20 (v/v) were added and plates were incubated overnight (16 hours) at 4° C. Plates were washed 5 times with 100 μL per well of wash buffer. Next 20 μL per well of secondary antibody was added (1:500 800 CW donkey anti-mouse IgG (H+L) antibody (Licor Biosciences), 1:1000 DRAQ5 (Cell Signaling Technology) in Odyssey buffer with 0.1% Tween 20 (v/v)) and incubated for 1 hour at room temperature. The plates were washed 5 times with 100 μL per well wash buffer then 2 times with 100 μL per well of water. Plates were allowed to dry at room temperature then imaged on a Licor Odyssey Infrared Scanner (Licor Biosciences) which measured integrated intensity at 700 nm and 800 nm wavelengths. Both 700 and 800 channels were scanned.
First, the ratio for each well was determined by:
Each plate included fourteen control wells of DMSO only treatment (Minimum Inhibition) as well as fourteen control wells (background wells) for maximum inhibition treated with control compound UNC0638 (Background wells).
The average of the ratio values for each well was calculated and used to determine the percent inhibition for each test well in the plate. Control compound was serially diluted three-fold in DMSO for a total of 10 test concentrations beginning at 1 μM. Percent inhibition was calculated as: […]
IC50 curves were generated using triplicate wells per concentration of compound. The IC50 is the concentration of compound at which measured methylation is inhibited by 50% as interpolated from the dose response curves. IC50 values were calculated using a non-linear regression (variable slope-four parameter fit model) with by the following formula:
where Top is fixed at 100% and Bottom is fixed to 0%, [I]=concentration of inhibitor, IC50=half maximal inhibitory concentration and n=Hill Slope.

[3] = Table 3A, read-out: EHMT1 (IC50 μM)
[4] = Table 3A, read-out: ICW (IC50 μM)
[5] = Table 3, read-out: EHMT1 PEP (IC50 μM)
[6] = Table 3, read-out: EHMT2 ICW (IC50 μM)

SMILES	IC50 [1, 3]	IC50 [2, 4]	IC50 [1, 5]	IC50 [2, 6]
CNC1=Nc2cc(-c3cc4n(n3)CCNC4)c(Cl)cc2C12CCC2 [Compound A10, 5′-chloro-N-methyl-6′-(4,5,6,7-tetrahydropyrazolo[1,5-a]pyrazin-2-yl)spiro[cyclobutane-1,3′-indol]-2′-amine]	0.01 to 0.1 µM	> 1 µM		
CNc1cc(C)nc(Nc2ccc(OC)c(C#CCN3CCNCC3)c2)n1 [Compound 28, 2-N-[4-methoxy-3-[3-(piperazin-1-yl)prop-1-yn-1-yl]phenyl]-4-N,6-dimethylpyrimidine-2,4-diamine]			< 0.1 µM	1 to 10 µM
CNCc1cn(-c2c(OC)cc3c(c2F)N=C(N)C32CCC2)nn1 [Compound A22]	0.01 to 0.1 µM	0.1 to 1 µM		
CNCc1cn(-c2cc3c(cc2Cl)C2(CCC2)C(NC)=N3)nn1 [Compound A11, 5′-chloro-N-methyl-6′-(4-((methylamino)methyl)-1H-1,2,3-triazol-1-yl)spiro[cyclobutane-1,3′-indol]-2′-amine]	< 0.01 µM	0.1 to 1 µM		
CNCc1cnn(-c2c(OC)ccc(Nc3nc(NC)cc(C(C)C)n3)c2F)c1 [Compound A8, N^2-(2-fluoro-4-methoxy-3-[4-[(methylamino)methyl]-1H-pyrazol-1-yl]phenyl)-N^4-methyl-6-(propan-2-yl)pyrimidine-2,4-diamine]	< 0.01 µM	0.01 to 0.1 µM		
CCNCc1cnn(-c2c(OC)ccc(Nc3nc(C)cc(NC)n3)c2F)c1 [Compound A7]	0.01 to 0.1 µM	0.1 to 1 µM		
CNCc1cn(-c2cc3c(cc2Cl)C2(CCC2)C(N)=N3)nn1 [Compound A15, 5′-chloro-6′-(4-((methylamino)methyl)-1H-1,2,3-triazol-1-yl)spiro[cyclobutane-1,3′-indol]-2′-amine]	0.01 to 0.1 µM	0.1 to 1 µM		
CNc1cc(C)nc(Nc2ccc(OC)c(CN[C@H](C)CN3CCCC3)c2)n1 [Compound 48]			0.1 to 1 µM	1 to 10 µM
CNc1cc(C)nc(Nc2ccc(C3CC3)c(CNCCN3CCCC3)c2)n1 [Compound 11, 2-N-[4-cyclopropyl-3-([[2-(pyrrolidin-1-yl)ethyl]amino]methyl)phenyl]-4-N,6-dimethylpyrimidine-2,4-diamine]			< 0.1 µM	1 to 10 µM
CNC1=Nc2cc(-n3cc([C@H]4CCCN4)nn3)c(Cl)cc2C12CCC2 [Compound A2R, (R)-5′-chloro-N-methyl-6′-(4-(pyrrolidin-2-yl)-1H-1,2,3-triazol-1-yl)spiro[cyclobutane-1,3′-indol]-2′-amine]	< 0.01 µM	0.01 to 0.1 µM		
CNC1=Nc2cc(-n3cc([C@@H]4CCCN4)nn3)c(Cl)cc2C12CCC2 [Compound A2S, (S)-5′-chloro-N-methyl-6′-(4-(pyrrolidin-2-yl)-1H-1,2,3-triazol-1-yl)spiro[cyclobutane-1,3′-indol]-2′-amine]	0.01 to 0.1 µM	> 1 µM		
CNc1cc(C)nc(Nc2ccc(OC)c(CNCCN3CCC[C@H]3C)c2)n1 [Compound 31]			< 0.1 µM	1 to 10 µM
CNC1=Nc2cc(-n3cc(CN4CCC4)cn3)c(Cl)cc2C12CCC2 [Compound A17, 6′-(4-(azetidin-1-ylmethyl)-1H-pyrazol-1-yl)-5′-chloro-N-methylspiro[cyclobutane-1,3′-indol]-2′-amine]	0.01 to 0.1 µM	0.1 to 1 µM		

Other lines, results leading:

IC50 [1, 3]	IC50 [2, 4]	IC50 [1, 5]	IC50 [2, 6]	SMILES
		1 to 10 µM	1 to 10 µM	CNc1cc(C)nc(Nc2ccc(Cl)c(C(=O)Nc3ncco3)c2)n1 [Compound 6]
		> 10 µM	> 10 µM	CNc1cc(C)nc(Nc2ccc(OC)c(C#CC[N+](C)(C)CCN)c2)n1 [Compound 45]
		1 to 10 µM	> 10 µM	CNc1cc(C)nc(Nc2ccc(Cl)c(C(=O)NCC3COC3)c2)n1 [Compound 2, 2-chloro-5-[[4-methyl-6-(methylamino)pyrimidin-2-yl]amino]-N-(oxetan-3-ylmethyl)benzamide]
		0.1 to 1 µM	1 to 10 µM	CNc1cc(C)nc(Nc2ccc(Cl)c(C(=O)Nc3cscn3)c2)n1 [Compound 13]
		1 to 10 µM	> 10 µM	CNc1cc(C)nc(Nc2ccc(Cl)c(C(=O)NCC3CC3)c2)n1 [Compound 4]
		> 10 µM	> 10 µM	CNc1cc(C)nc(Nc2ccc(OC)c(OC[C@H](O)CN3CC4(CC4)C3)c2)n1 [Compound 41]
		< 0.1 µM	1 to 10 µM	CNc1cc(C)nc(Nc2ccc(Br)c(CNCCN3CCCC3)c2)n1 [Compound 1, 2-N-[4-bromo-3-([[2-(pyrrolidin-1-yl)ethyl]amino]methyl)phenyl]-4-N,6-dimethylpyrimidine-2,4-diamine]
		> 10 µM	> 10 µM	CNc1cc(C)nc(Nc2ccc(OC)c(OC[C@H](O)CN3CCCCC3)c2)n1 [Compound 40]
		1 to 10 µM	> 10 µM	CNc1cc(C)nc(Nc2ccc(Cl)c(C(=O)Nc3cocn3)c2)n1 [Compound 14, 2-chloro-5-[[4-methyl-6-(methylamino)pyrimidin-2-yl]amino]-N-(1,3-oxazol-4-yl)benzamide]
		0.1 to 1 µM	1 to 10 µM	CNc1cc(C)nc(Nc2ccc(OC)c(CNCCN3CC[C@H](C)C3)c2)n1 [Compound 39]
		> 10 µM	> 10 µM	CNc1cc(C)nc(Nc2ccc(OC)c(CNCCN3CC(C)C3)c2)n1 [Compound 35]
		1 to 10 µM	> 10 µM	CNc1cc(C)nc(Nc2ccc(C)c(C(=O)Nc3ncn(C)n3)c2)n1 [Compound 33]
		0.1 to 1 µM	> 10 µM	CNc1cc(C)nc(Nc2ccc(OC)c(CNCCN3CC[C@@H](C)C3)c2)n1 [Compound 38]
